Legend:
PknA-core (PknA-338) = PknA-core (PknA-338) (Mycobacterium tuberculosis, UniProt P9WI83)
PknB = PknB (Mycobacterium tuberculosis, UniProt P9WI81)
Sequence of PknB (P9WI81 2-626): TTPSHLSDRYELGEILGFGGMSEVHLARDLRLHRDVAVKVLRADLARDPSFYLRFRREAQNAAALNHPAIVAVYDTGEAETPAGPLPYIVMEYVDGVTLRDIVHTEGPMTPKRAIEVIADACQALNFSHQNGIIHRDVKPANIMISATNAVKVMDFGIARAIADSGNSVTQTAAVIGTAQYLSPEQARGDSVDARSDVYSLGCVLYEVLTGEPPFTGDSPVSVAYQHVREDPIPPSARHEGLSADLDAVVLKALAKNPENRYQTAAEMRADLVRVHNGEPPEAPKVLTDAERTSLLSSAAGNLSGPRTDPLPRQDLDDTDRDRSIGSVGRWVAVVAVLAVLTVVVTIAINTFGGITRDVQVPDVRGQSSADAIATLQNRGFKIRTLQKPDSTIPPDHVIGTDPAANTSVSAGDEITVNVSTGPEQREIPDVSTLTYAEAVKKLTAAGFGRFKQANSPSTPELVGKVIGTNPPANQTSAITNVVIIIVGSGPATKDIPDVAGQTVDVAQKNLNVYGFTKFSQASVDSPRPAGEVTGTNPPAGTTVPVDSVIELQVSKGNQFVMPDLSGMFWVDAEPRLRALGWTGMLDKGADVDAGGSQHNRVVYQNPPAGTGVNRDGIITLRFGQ

Sequence of PknA-core (PknA-338) (P9WI83 1-338): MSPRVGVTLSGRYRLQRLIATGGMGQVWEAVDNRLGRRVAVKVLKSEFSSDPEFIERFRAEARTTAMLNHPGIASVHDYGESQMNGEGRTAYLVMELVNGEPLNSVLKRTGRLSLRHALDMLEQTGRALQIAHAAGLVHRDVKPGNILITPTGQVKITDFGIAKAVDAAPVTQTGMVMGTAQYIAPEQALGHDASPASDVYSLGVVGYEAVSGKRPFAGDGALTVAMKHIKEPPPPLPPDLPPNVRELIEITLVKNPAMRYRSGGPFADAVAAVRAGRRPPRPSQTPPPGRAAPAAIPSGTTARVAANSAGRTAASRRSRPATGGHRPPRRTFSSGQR

**Q.** For `Nc1ncnc2c1ncn2[C@@H]1O[C@H](COP(=O)(O)OP(=O)(O)OP(=O)(O)O)[C@@H](O)[C@H]1O` [[γ-32P] ATP], which “in vitro kinase assay, SDS/PAGE and autoradiography” value (PknA-core (PknA-338)) is on record?
**A.** its incubation with PknA exhibited phosphorylation

**Q.** What about the “in vitro kinase assay, SDS/PAGE and autoradiography” value (PknB) of the same compound?
**A.** PknB, another essential mycobacterial kinase, instead of PknA in the assay yielded weak p-mGmk
